According to patent US12539320B2, “Composition for improving eyesight” (South China Agricultural University, priority 2022, dated 2026):

Legend:
Format in all cases: in vivo, BALB/c mice
Conditions in all cases: 5 μL dripped into conjunctival sac 2 times a day for 15 days, mean (SD in next cell)
mice with xerophthalmia [1] = assay: Measurement of secretion amount of tear (phenol red cotton thread) in benzalkonium chloride-induced xerophthalmia mice
Protocol: (§1) 1.1 Test animals: 100 SPF-grade 8-week-old healthy BALB/c mice, each weighed 18-22 g, were selected, and anterior segment and fundus of the eyes were not abnormal.
(§2) 1.2. Establishment of animal model: 90 mice were selected to induce a model of xerophthalmia. 5 μL of 2 g/L of a benzalkonium chloride solution was dripped into conjunctival sac of the eyes of 90 mice for 2 times a day and continuously for 15 days. After the modeling was success, the mice were randomly divided into 9 groups with 10 mice in each group.
(§3) 1.3. […] After 15 days, the secretion amount of tear, breakup time of a tear film, and the expression amount of conjunctival epithelial mucin MUC5AC were measured for the mice in each group.
(1) Measurement of secretion amount of tear: a phenol red cotton thread was placed in the conjunctival sac of the mouse at about ⅓ outside for 1 min and a length of a red part of the phenol red cotton thread was measured.

mice with xerophthalmia [2] = assay: Measurement of breakup time of tear film (fluorescein sodium, slit lamp) in xerophthalmia mice
Protocol: as §1, §2, §3
(2) Measurement of breakup time of tear film: 1 μL of 10 g/L of a fluorescein sodium solution was dripped into the conjunctival sac of the mouse, after the mouse blinked, the eyes were artificially kept in a normal opening state, and time for a tear film to generate the 1st black spot (breaking point) was observed and recorded under a cobalt blue light of a slit lamp.

[3] = test system: conjunctival epithelial mucin MUC5AC; assay: Expression amount of conjunctival epithelial mucin MUC5AC by Western Blot in xerophthalmia mice
Protocol: as §1, §2, §3
(3) Measurement of expression amount of conjunctival epithelial mucin MUC5AC: an expression level of the mucin MUC5AC in the conjunctival epithelial cells of the mouse was detected by Western Blot.

For lutein ester [Comparative example 3], the “Secretion amount of tear” value (mice with xerophthalmia [1]) was 6.46 mm, the “Breakup time of tear film” value (mice with xerophthalmia [2]) was 36.72 s and the “Expression amount of conjunctival epithelial mucin MUC5AC” value [3] was 0.38 ng/mg.
